# System: bicistronic genotype 1b replicon in Huh 7 cells (1b_Huh-Luc/Neo-ET cell line)
# Assay: HCV replicon assay, luciferase enzyme activity readout
# Assay type: cell-based
# Conditions: Hepatitis C virus, 1b_Huh-Luc/Neo-ET replicon cells, 72 h incubation, Bright-Glo luciferase readout, EC50 ranges, read-out: Inhibition of HCV genotype 1b
# Method: Biological activity of the compounds of the invention was determined using an HCV replicon assay. The 1b_Huh-Luc/Neo-ET cell line persistently expressing a bicistronic genotype 1b replicon in Huh 7 cells was obtained from ReBLikon GMBH. This cell line was used to test compound inhibition using luciferase enzyme activity readout as a measurement of compound inhibition of replicon levels.
# On Day 1 (the day after plating), each compound is added in triplicate to the cells. Plates incubated for 72 h prior to running the luciferase assay. Enzyme activity was measured using a Bright-Glo Kit (cat. number E2620) manufactured by Promega Corporation. The following equation was used to generate a percent control value for each compound.
# % Control=(Average Compound Value/Average Control)*100
# The EC50 value was determined using GraphPad Prism and the following equation:
# Y=Bottom+(Top−Bottom)/(1+10̂((Log IC50−X)*HillSlope))
# EC50 values of compounds are repeated several times in the replicon assay.
row,SMILES,EC50
1,COC(=O)N[C@H](C(=O)N1CC(C)=CC1c1ncc(-c2ccc(-c3ccc4cc(-c5cnc([C@@H]6CCCN6C(=O)[C@@H](NC(=O)OC)C(C)C)[nH]5)ccc4c3)cc2)[nH]1)C(C)C (stereo partly shown) [Compound 101],< 1 nM
2,COC(=O)N[C@H](C(=O)N1CC(C)=C[C@H]1c1ncc(-c2ccc(C#Cc3ccc4nc([C@@H]5CCCN5C(=O)[C@@H](NC(=O)OC)C(C)C)[nH]c4c3)cc2)[nH]1)C(C)C [Compound 102],< 1 nM
3,COC(=O)N[C@H](C(=O)N1CC(C)=C[C@H]1c1ncc(-c2ccc(C#Cc3ccc(-c4cnc([C@@H]5CCCN5C(=O)[C@@H](NC(=O)OC)C(C)C)[nH]4)cc3)cc2)[nH]1)C(C)C [Compound 103],< 1 nM
4,COC(=O)N[C@H](C(=O)N1CC(C)=C[C@H]1c1nc2ccc(C#Cc3ccc(-c4cnc([C@@H]5CCCN5C(=O)[C@@H](NC(=O)OC)C(C)C)[nH]4)cc3)cc2[nH]1)C(C)C [Compound 104],< 1 nM
5,COC(=O)N[C@H](C(=O)N1CC(C2CC2)=C[C@H]1c1ncc(-c2ccc(-c3ccc4cc(-c5cnc([C@@H]6CCCN6C(=O)[C@@H](NC(=O)OC)C(C)C)[nH]5)ccc4c3)cc2)[nH]1)C(C)C [Compound 105],< 1 nM
6,COC(=O)N[C@H](C(=O)N1CC(C2CC2)=C[C@H]1c1ncc(-c2ccc(C#Cc3ccc4nc([C@@H]5CCCN5C(=O)[C@@H](NC(=O)OC)C(C)C)[nH]c4c3)cc2)[nH]1)C(C)C [Compound 109],< 1 nM
7,COC(=O)N[C@H](C(=O)N1CC(C2CC2)=C[C@H]1c1ncc(-c2ccc(C#Cc3ccc(-c4cnc([C@@H]5CCCN5C(=O)[C@@H](NC(=O)OC)C(C)C)[nH]4)cc3)cc2)[nH]1)C(C)C [Compound 110],< 1 nM
8,COC(=O)N[C@H](C(=O)N1CC(C)=C[C@H]1c1ncc(-c2ccc(C#Cc3ccc(-c4cnc([C@@H]5C=C(C)CN5C(=O)[C@@H](NC(=O)OC)C(C)C)[nH]4)cc3)cc2)[nH]1)C(C)C [Compound 111],< 1 nM
9,COC(=O)N[C@H](C(=O)N1CC(C)=C[C@H]1c1ncc(-c2ccc3c(c2)Oc2ccc(-c4cnc([C@@H]5C=C(C)CN5C(=O)[C@@H](NC(=O)OC)C(C)C)[nH]4)cc2C3(C)C)[nH]1)C(C)C [Compound 112],< 1 nM
10,COC(=O)N[C@H](C(=O)N1CC(C)=C[C@H]1c1ncc(-c2ccc3c(=O)c4cc(-c5cnc([C@@H]6C=C(C)CN6C(=O)[C@@H](NC(=O)OC)C(C)C)[nH]5)ccc4oc3c2)[nH]1)C(C)C [Compound 113],< 1 nM
11,COC(=O)N[C@H](C(=O)N1CC(C2CC2)=C[C@H]1c1nc2ccc(-c3ccc4cc(-c5cnc([C@@H]6CCCN6C(=O)[C@@H](NC(=O)OC)C(C)C)[nH]5)ccc4c3)cc2[nH]1)C(C)C [Compound 114],< 1 nM
12,COC(=O)N[C@H](C(=O)N1CC(C2CC2)=C[C@H]1c1nc2ccc(C#Cc3ccc(-c4cnc([C@@H]5CCCN5C(=O)[C@@H](NC(=O)OC)C(C)C)[nH]4)cc3)cc2[nH]1)C(C)C [Compound 115],< 1 nM
13,COC(=O)N[C@H](C(=O)N1CC(C2CC2)=C[C@@H]1c1nc2ccc(C#Cc3ccc(-c4cnc([C@@H]5CCCN5C(=O)[C@@H](NC(=O)OC)C(C)C)[nH]4)cc3)cc2[nH]1)C(C)C [Compound 116],1 to 9.9 nM
14,COC(=O)N[C@H](C(=O)N1CC(C)=C[C@H]1c1ncc(-c2ccc(C#Cc3ccc4c(ccc5nc([C@@H]6CCCN6C(=O)[C@@H](NC(=O)OC)C(C)C)[nH]c54)c3)cc2)[nH]1)C(C)C [Compound 118],< 1 nM
15,COC(=O)N[C@H](C(=O)N1CC(C)=C[C@H]1c1ncc(-c2ccc3cc(-c4ccc5nc([C@@H]6CCCN6C(=O)[C@@H](NC(=O)OC)C(C)C)[nH]c5c4)ccc3c2)[nH]1)C(C)C [Compound 119],< 1 nM
16,COC(=O)N[C@H](C(=O)N1CC(C)=C[C@H]1c1ncc(-c2ccc3cc(-c4ccc(-c5cnc([C@@H]6CCCN6C(=O)[C@@H](NC(=O)OC)C(C)C)[nH]5)cc4)ccc3c2)[nH]1)C(C)C [Compound 120],< 1 nM
17,COC(=O)N[C@H](C(=O)N1CC(C)=C[C@H]1c1ncc(-c2ccc(-c3ccc4cc(-c5cnc([C@@H]6C=C(C)CN6C(=O)[C@@H](NC(=O)OC)C(C)C)[nH]5)ccc4c3)cc2)[nH]1)C(C)C [Compound 121],< 1 nM
18,COC(=O)N[C@H](C(=O)N1CC(C)=C[C@H]1c1ncc(-c2ccc3cc(-c4ccc5nc([C@@H]6C=C(C7CC7)CN6C(=O)[C@@H](NC(=O)OC)C(C)C)[nH]c5c4)ccc3c2)[nH]1)C(C)C [Compound 122],< 1 nM
19,COC(=O)N[C@H](C(=O)N1CC(C)=C[C@H]1c1ncc(-c2ccc3cc(C#Cc4cnc([C@@H]5CCCN5C(=O)[C@@H](NC(=O)OC)C(C)C)[nH]4)ccc3c2)[nH]1)C(C)C [Compound 123],< 1 nM

# — patent publication US20130310427A1, “INHIBITORS OF HCV NS5A PROTEIN” (PRESIDIO PHARMACEUTICALS, INC., priority 2010, published 2013)
